PubChem BioAssay (NCI)
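Compound exposure: 48 hours, 5 concentrations, 96-well plates. GI50 = concentration required for 50% inhibition of growth. The concentration for full growth arrest is given as TGI.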

Columns and labels:
Experiment in all cases: NCI anticancer screen, dose series, 48 h
SN12C renal = test system: SN12C renal
786-0 renal = test system: 786-0 renal
RXF 393 renal = test system: RXF 393 renal
HOP-92 NSCLC = test system: HOP-92 NSCLC
KM12 colon = test system: KM12 colon
SK-MEL-5 melanoma = test system: SK-MEL-5 melanoma
T-47D breast = test system: T-47D breast
SK-MEL-2 melanoma = test system: SK-MEL-2 melanoma
SK-MEL-28 melanoma = test system: SK-MEL-28 melanoma
ACHN renal = test system: ACHN renal
OVCAR-4 ovarian = test system: OVCAR-4 ovarian
CAKI-1 renal = test system: CAKI-1 renal
MDA-MB-435 = test system: MDA-MB-435
HCT-15 colon = test system: HCT-15 colon
HS 578T breast = test system: HS 578T breast
SR leukemia = test system: SR leukemia
NCI-H460 lung = test system: NCI-H460 lung
LOX IMVI melanoma = test system: LOX IMVI melanoma
MCF7 breast = test system: MCF7 breast
HCC-2998 colon = test system: HCC-2998 colon
COLO 205 colon = test system: COLO 205 colon
A549 NSCLC = test system: A549 NSCLC
SK-OV-3 ovarian = test system: SK-OV-3 ovarian
CCRF-CEM leukemia = test system: CCRF-CEM leukemia
OVCAR-3 ovarian = test system: OVCAR-3 ovarian
DU-145 prostate = test system: DU-145 prostate
MOLT-4 leukemia = test system: MOLT-4 leukemia
SF-268 CNS = test system: SF-268 CNS
RPMI-8226 leukemia = test system: RPMI-8226 leukemia
HL-60(TB) leukemia = test system: HL-60(TB) leukemia
EKVX NSCLC = test system: EKVX NSCLC
OVCAR-8 ovarian = test system: OVCAR-8 ovarian
HCT-116 colon = test system: HCT-116 colon
HT29 colon = test system: HT29 colon
TK-10 renal = test system: TK-10 renal
SNB-19 CNS = test system: SNB-19 CNS
NCI/ADR-RES ovarian = test system: NCI/ADR-RES ovarian
M14 melanoma = test system: M14 melanoma
MALME-3M melanoma = test system: MALME-3M melanoma
A498 renal = test system: A498 renal
NCI-H226 lung = test system: NCI-H226 lung
IGROV1 ovarian = test system: IGROV1 ovarian
OVCAR-5 ovarian = test system: OVCAR-5 ovarian
PC-3 prostate = test system: PC-3 prostate
SF-295 CNS = test system: SF-295 CNS
SF-539 CNS = test system: SF-539 CNS
UACC-257 melanoma = test system: UACC-257 melanoma
U251 CNS = test system: U251 CNS
NCI-H23 lung = test system: NCI-H23 lung
MDA-MB-231 breast = test system: MDA-MB-231 breast
UACC-62 melanoma = test system: UACC-62 melanoma
K-562 leukemia = test system: K-562 leukemia
SW-620 colon = test system: SW-620 colon
SNB-75 CNS = test system: SNB-75 CNS

O=c1[nH]nc(-c2ccc(F)cc2)cc1-c1ccccc1 was tested, and the TGI (SN12C renal) was > 100 µM, the TGI (786-0 renal) was > 100 µM and the TGI (RXF 393 renal) was > 100 µM. For the same compound, the TGI (HOP-92 NSCLC) was > 100 µM, the TGI (KM12 colon) was > 100 µM and the TGI (SK-MEL-5 melanoma) was > 100 µM. For the same compound, the TGI (T-47D breast) was > 100 µM, the TGI (SK-MEL-2 melanoma) was > 100 µM and the TGI (SK-MEL-28 melanoma) was > 100 µM. The TGI (ACHN renal) was > 100 µM, the TGI (OVCAR-4 ovarian) was > 100 µM and the TGI (CAKI-1 renal) was > 100 µM. The TGI (MDA-MB-435) was > 100 µM, the TGI (HCT-15 colon) was > 100 µM and the TGI (HS 578T breast) was > 100 µM. The TGI (SR leukemia) was > 100 µM, the TGI (NCI-H460 lung) was > 100 µM and the TGI (LOX IMVI melanoma) was > 100 µM. The TGI (MCF7 breast) was > 100 µM, the TGI (HCC-2998 colon) was > 100 µM and the TGI (COLO 205 colon) was > 100 µM. The TGI (A549 NSCLC) was > 100 µM, the TGI (SK-OV-3 ovarian) was > 100 µM and the TGI (CCRF-CEM leukemia) was > 100 µM. For the same compound, the TGI (OVCAR-3 ovarian) was > 100 µM, the TGI (DU-145 prostate) was > 100 µM and the TGI (MOLT-4 leukemia) was > 100 µM. The TGI (SF-268 CNS) was > 100 µM, the TGI (RPMI-8226 leukemia) was > 100 µM and the TGI (HL-60(TB) leukemia) was > 100 µM. For the same compound, the TGI (EKVX NSCLC) was > 100 µM, the TGI (OVCAR-8 ovarian) was > 100 µM and the TGI (HCT-116 colon) was > 100 µM. The TGI (HT29 colon) was > 100 µM, the TGI (TK-10 renal) was > 100 µM and the TGI (SNB-19 CNS) was > 100 µM. The TGI (NCI/ADR-RES ovarian) was > 100 µM, the TGI (M14 melanoma) was > 100 µM and the TGI (MALME-3M melanoma) was > 100 µM. For the same compound, the TGI (A498 renal) was > 100 µM, the TGI (NCI-H226 lung) was > 100 µM and the TGI (IGROV1 ovarian) was > 100 µM. The TGI (OVCAR-5 ovarian) was > 100 µM, the TGI (PC-3 prostate) was > 100 µM and the TGI (SF-295 CNS) was > 100 µM. For the same compound, the TGI (SF-539 CNS) was > 100 µM, the TGI (UACC-257 melanoma) was > 100 µM and the TGI (U251 CNS) was > 100 µM. The TGI (NCI-H23 lung) was > 100 µM, the TGI (MDA-MB-231 breast) was > 100 µM and the TGI (UACC-62 melanoma) was > 100 µM. For the same compound, the TGI (K-562 leukemia) was > 100 µM and the TGI (SW-620 colon) was > 100 µM.

NC(=O)c1ncn(CC2(CO)CCC2)n1 showed a GI50 (SNB-75 CNS) of 21.6 µM.

C=C(C)[C@@H]1CC[C@]2(C(=O)OCCCC[P+](c3ccccc3)(c3ccccc3)c3ccccc3)CC[C@]3(C)[C@H](CC[C@@H]4[C@@]5(C)CC[C@H](OC(=O)C(Cl)Cl)C(C)(C)[C@@H]5CC[C@]43C)[C@@H]12 was tested, and the GI50 (SN12C renal) was 0.27 µM and the TGI (SN12C renal) was 1.58 µM.
